The term IC50 denotes the midpoint of a concentration-inhibition curve. High values mean lower potency, low ones higher potency.

Some results are limits rather than exact numbers.

This note sets out measurements from US20240285614A1, “PHENOL RIBONUCLEOTIDE REDUCTASE (RNR) INHIBITORS AND USES THEREOF” (Boundless Bio, Inc., priority 2023, published 2024).

One assay addresses T1, RNR (RNR1:RNR2 1:1) (Homo sapiens, UniProt P23921+P31350).
T1 sequence (P23921 1-792): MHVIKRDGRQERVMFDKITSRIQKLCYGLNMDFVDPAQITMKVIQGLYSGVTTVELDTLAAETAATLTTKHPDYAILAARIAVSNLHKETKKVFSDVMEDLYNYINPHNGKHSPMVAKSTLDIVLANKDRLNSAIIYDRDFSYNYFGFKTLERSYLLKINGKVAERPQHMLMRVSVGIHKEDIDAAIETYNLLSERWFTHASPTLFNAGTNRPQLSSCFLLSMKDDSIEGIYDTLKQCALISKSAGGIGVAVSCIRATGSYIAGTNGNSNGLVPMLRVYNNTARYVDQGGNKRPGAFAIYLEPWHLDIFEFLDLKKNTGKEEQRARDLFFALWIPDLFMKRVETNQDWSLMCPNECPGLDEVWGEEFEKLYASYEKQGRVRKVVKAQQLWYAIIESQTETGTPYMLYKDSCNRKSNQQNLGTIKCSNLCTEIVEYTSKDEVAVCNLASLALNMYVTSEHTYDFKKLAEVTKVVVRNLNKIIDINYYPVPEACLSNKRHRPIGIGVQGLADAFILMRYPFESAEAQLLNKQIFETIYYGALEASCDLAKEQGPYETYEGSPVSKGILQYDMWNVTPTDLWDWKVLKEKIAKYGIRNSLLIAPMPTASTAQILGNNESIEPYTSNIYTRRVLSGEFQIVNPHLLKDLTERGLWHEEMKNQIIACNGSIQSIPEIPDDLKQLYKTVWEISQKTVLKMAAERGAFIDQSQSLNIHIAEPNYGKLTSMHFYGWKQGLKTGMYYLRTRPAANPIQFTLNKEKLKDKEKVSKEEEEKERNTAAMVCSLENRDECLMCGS
T1 sequence (P31350 1-389): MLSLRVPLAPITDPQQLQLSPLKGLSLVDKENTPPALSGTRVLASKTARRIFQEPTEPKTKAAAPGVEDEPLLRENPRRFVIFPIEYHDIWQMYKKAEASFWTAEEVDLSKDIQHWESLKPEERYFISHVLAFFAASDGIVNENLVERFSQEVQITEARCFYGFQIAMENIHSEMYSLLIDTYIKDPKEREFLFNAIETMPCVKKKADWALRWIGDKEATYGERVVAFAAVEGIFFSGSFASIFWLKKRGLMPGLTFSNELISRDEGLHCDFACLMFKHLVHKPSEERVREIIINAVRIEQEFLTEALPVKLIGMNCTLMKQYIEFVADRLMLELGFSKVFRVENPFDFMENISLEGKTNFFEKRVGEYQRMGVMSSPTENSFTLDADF
Briefly: RNR enzyme activity, rapid-fire mass spectrometry (RF/MS) assay. The format is biochemical. Particulars: RNR 50 nM, 1:1 (RNR1:RNR2); CDP 5 μM; ATP 1 mM; 37° C., 45 min; compounds screened up to 50 μM. How it is done:
A rapid-fire mass spectrometry (RF/MS) assay was used to assess RNR enzyme activity using a 384 well plate and a robotic platform.
The plate layout included two validated reference compounds (Triapine (3-AP) and Hydroxyurea (HU)): • A dose response in duplicate, top concentration: 5 μM (3-AP) and 250 μM (HU), semi-log • dilutions. • Spike wells in triplicate randomly spotted at four concentrations: • 250 μM, 100 μM, 30 μM and 2 μM for HU • 5 μM, 2 μM, 0.6 μM and 0.04 μM for 3-AP
First, the multidrop pipes were saturated for 30 minutes with enzymatic solution. Then 30 μL of Stop solution was distributed in column 24. Next, 15 μL of enzyme was distributed in column 1 to 24. Next, a pre-incubation step of 15 minutes at room temperature occurred, followed by distribution of 15 μL of substrate solution (column 1 to 24). Next, the plate was incubated for 45 minutes at 37° C. 30 μL of Stop solution was distributed to columns 1 to 23.
The final parameters for the enzyme reactions were: • Incubation: 37° C., 45 min • [CDP]: 5 μM: [ATP]: 1 mM; [NADPH]: No • [RNR]final: 50 nM with 1:1 (RNR1:RNR2) ratio • Final volume: 30 μL • Stop solution: 6% HCOOH containing 2 μM of 15

The test system of assay [1] is pCHK1 (S345) in Colo320 DM cells. Briefly: Alphalisa assay, detection of pCHK1 (S345) in Colo320 DM cells. Type of assay: cell-based. Particulars: Homo sapiens, COLO 320DM, compound incubation overnight (approximately 16 hours). As for the experimental part: Colo320 DM cells (ATCC #CCL-220, derived from human colorectal adenocarcinoma, Dukes' type C) were seeded on a 96-well, cell culture treated assay plate at a density of 50,000 cells/well in 200 μL of RPMI-1640 media supplemented with 10% Fetal Bovine Serum and incubated at 37° C. overnight. The following day, test compound dilutions were added directly to the plated cells by a Tecan digital dispenser to a final DMSO concentration of <0.5%, and incubated at 37° C. overnight (approximately 16 hours). The following day all cull culture media was removed from the cells. 75 μL of 1× AlphaLisa lysis buffer was added to each well and plates were agitated on a shaker for 30 minutes at room temperature. The lysis of cells and detection of pCHK1 (S345) were performed with regents contained within the AlphaLisa Sure Fire assay kit (Perkin Elmer #ALSU-PCHK1-A) according to the manufacturer's instructions. 10 μL of each lysate was then transferred to a white, 384-well assay plate (Perkin Elmer #6008280), 5 μL of Acceptor mix was then added to each well of lysate in the white, 384-well assay plate and incubated in the dark at room temperature for 60 minutes. 5 μL of Donor mix was then added to each well of the white, 384-well assay plate in subdued light and incubated at room temperature for 60 minutes. Plates were read on an Alpha Technology-compatible plate reader using standard AlphaLisa settings.
(Alpha assays give light when donor and acceptor beads are brought close together.)

With `CN(C1CCN(c2ccc(O)cc2)CC1)S(=O)(=O)c1ccc2cc[nH]c2c1` [compound 12, N-(1-(4-hydroxyphenyl)piperidin-4-yl)-N-methyl-1H-indole-6-sulfonamide], the IC50 was at most 0.05 µM against RNR (RNR1:RNR2 1:1) and 5 to 10 µM in assay [1].
The corresponding values for `CN(c1ccc(O)cc1)C1CN(S(=O)(=O)c2ccc3cc[nH]c3c2)C1` [compound 13, 4-((1-((1H-indol-6-yl)sulfonyl)azetidin-3-yl)(methyl)amino)phenol] are at most 0.05 µM and at most 1 µM.
On the same counts, the results for `O=S(=O)(c1ccc2cc[nH]c2c1)N1CCCN(c2ccc(O)cc2)CC1` [compound 14, 4-(4-((1H-indol-6-yl)sulfonyl)-1,4-diazepan-1-yl)phenol] are at most 0.05 µM and 5 to 10 µM.
For the molecule `CN(c1ccc(O)cc1)C1CCN(S(=O)(=O)c2ccc3cc[nH]c3c2)CC1` [compound 15, 4-((1-((1H-indol-6-yl)sulfonyl)piperidin-4-yl)(methyl)amino)phenol], the IC50 is 0.05 to 0.1 µM at RNR (RNR1:RNR2 1:1) and 1 to 5 µM in assay [1].
On the same counts, the results for `CN(C1CN(c2ccc(O)cc2)C1)S(=O)(=O)c1ccc2cc[nH]c2c1` [compound 16, N-(1-(4-hydroxyphenyl)azetidin-3-yl)-N-methyl-1H-indole-6-sulfonamide] are 0.1 to 0.5 µM and 1 to 5 µM.
On the same counts, the results for `O=S(=O)(c1ccc2cc[nH]c2c1)N1C[C@H]2COC[C@@H](C1)N2c1ccc(O)cc1` [compound 17, 4-((1R,5S)-7-((1H-indol-6-yl)sulfonyl)-3-oxa-7,9-diazabicyclo[3.3.1]nonan-9-yl)phenol] are at most 0.05 µM and at most 1 µM.
The corresponding values for `CN(c1ccc(O)cc1)C1CN(S(=O)(=O)c2ccc3cn[nH]c3c2)C1` [compound 18, 4-((1-((1H-indazol-6-yl)sulfonyl)azetidin-3-yl)(methyl)amino)phenol] are 0.1 to 0.5 µM and 10 to 50 µM.
On to `O=S(=O)(c1ccc2cc[nH]c2c1)N1CC(N(c2ccc(O)cc2)C2CC2)C1` [compound 19, 4-((1-((1H-indol-6-yl)sulfonyl)azetidin-3-yl)(cyclopropyl)amino)phenol], for which the values for the IC50 (on RNR (RNR1:RNR2 1:1); in assay [1]) were at most 0.05 µM and 1 to 5 µM, respectively.
On the same counts, the results for `C[C@@H]1CN(c2ccc(O)cc2)CCN1S(=O)(=O)c1ccc2cc[nH]c2c1` [compound 21, (R)-4-(4-((1H-indol-6-yl)sulfonyl)-3-methylpiperazin-1-yl)phenol] are at most 0.05 µM and 1 to 5 µM.
On the same counts, the results for `CN(c1ccc(O)cc1)C1CN(S(=O)(=O)c2cc3[nH]cc(Cl)c3cc2F)C1` [compound 22, 4-((1-((3-chloro-5-fluoro-1H-indol-6-yl)sulfonyl)azetidin-3-yl)(methyl)amino)phenol] are at most 0.05 µM and 1 to 5 µM.
In the case of `CN(c1ccc(O)cc1)C1CN(S(=O)(=O)c2ccc3ccn(C)c3c2)C1` [compound 23, 4-(methyl(1-((1-methyl-1H-indol-6-yl)sulfonyl)azetidin-3-yl)amino)phenol], the IC50 is at most 0.05 µM on RNR (RNR1:RNR2 1:1) and 1 to 5 µM in assay [1].
The corresponding values for `CN(c1ccc(O)cc1)C1CN(S(=O)(=O)c2cccc3[nH]ccc23)C1` [compound 24, 4-((1-((1H-indol-4-yl)sulfonyl)azetidin-3-yl)(methyl)amino)phenol] are 0.05 to 0.1 µM and 1 to 5 µM.
On the same counts, the results for `CCN(c1ccc(O)cc1)C1CN(S(=O)(=O)c2ccc3cc[nH]c3c2)C1` [compound 25, 4-((1-((1H-indol-6-yl)sulfonyl)azetidin-3-yl)(ethyl)amino)phenol] are at most 0.05 µM and at most 1 µM.
On the same counts, the results for `O=S(=O)(c1ccc2cc[nH]c2c1)N1C[C@H]2CC[C@@H](C1)N2c1ccc(O)cc1` [compound 26, 4-((1R,5S)-3-((1H-indol-6-yl)sulfonyl)-3,8-diazabicyclo[3.2.1]octan-8-yl)phenol] are 0.1 to 0.5 µM and 5 to 10 µM.
Turning to `CN(c1ccc(O)cc1)C1CN(S(=O)(=O)c2ccc3[nH]ccc3c2)C1` [compound 27, 4-((1-((1H-indol-5-yl)sulfonyl)azetidin-3-yl)(methyl)amino)phenol], the results for the IC50 (against RNR (RNR1:RNR2 1:1); in assay [1]) were at most 0.05 µM and at most 1 µM, respectively.
The corresponding values for `O=S(=O)(c1ccc2cc[nH]c2c1)N1C[C@H]2CCC[C@@H](C1)N2c1ccc(O)cc1` [compound 28, 4-((1R,5S)-3-((1H-indol-6-yl)sulfonyl)-3,9-diazabicyclo[3.3.1]nonan-9-yl)phenol] are at most 0.05 µM and 1 to 5 µM.
The corresponding values for `CN(CC1CN(S(=O)(=O)c2ccc3cc[nH]c3c2)C1)c1ccc(O)cc1` [compound 29, 4-(((1-((1H-indol-6-yl)sulfonyl)azetidin-3-yl)methyl)(methyl)amino) phenol] are at most 0.05 µM and 5 to 10 µM.
Turning to `O=S(=O)(c1ccc2cc[nH]c2c1)N1[C@@H]2CCC[C@H]1CN(c1ccc(O)cc1)C2` [compound 34, 4-((1R,5S)-9-((1H-indol-6-yl)sulfonyl)-3,9-diazabicyclo[3.3.1]nonan-3-yl)phenol], the IC50 against RNR (RNR1:RNR2 1:1) was at most 0.05 µM; in assay [1], 1 to 5 µM.
The corresponding values for `O=S(=O)(c1ccc2cc[nH]c2c1)N1CC2CC1CN2c1ccc(O)cc1` (centres unmarked) [compound 35, 4-(5-((1H-indol-6-yl)sulfonyl)-2,5-diazabicyclo[2.2.1]heptan-2-yl)phenol] are 0.1 to 0.5 µM and 10 to 50 µM.
The corresponding values for `O=S(=O)(c1ccc2cc[nH]c2c1)N1CCC(Oc2ccc(O)cc2)C1` (centres unmarked) [compound 40, 4-((1-((1H-indol-6-yl)sulfonyl)pyrrolidin-3-yl)oxy)phenol] are at most 0.05 µM and at most 1 µM.
On the same counts, the results for `Cn1ccc2ccc(S(=O)(=O)N3CCC4(CCN(c5ccc(O)cc5)CC4)C3)cc21` [compound 41, 4-(2-((1-methyl-1H-indol-6-yl)sulfonyl)-2,8-diazaspiro[4.5]decan-8-yl)phenol] are 0.1 to 0.5 µM and 10 to 50 µM.
As to `O=S(=O)(c1ccc2cc[nH]c2c1)N1CCC(Oc2ccc(O)cc2)CC1` [compound 43, 4-((1-((1H-indol-6-yl)sulfonyl)piperidin-4-yl)oxy)phenol], the IC50 against RNR (RNR1:RNR2 1:1) is at most 0.05 µM; in assay [1], 1 to 5 µM.
